Assay results taken from patent publication US5189169A (priority 1991, dated 1993).
Values joined by “and” are separate entries in the source; they are usually repeats but may differ in a detail not shown here. Equal values may be shown once.

Columns and labels:
Details in all cases: in vivo
[1] = system: three broadleaf weeds (morning glory, mustard, velvetleaf); design: species or system Ipomoea purpurea, Brassica kaber, Abutilon theophrasti
[2] = system: three broadleaf weeds (morning glory, mustard, velvetleaf); design: species or system Ipomoea purpurea, Brassica kaber, Abutilon theophrasti; remark: listed apart in the source
[3] = system: yellow nutsedge; design: species or system Cyperus esculentus
[4] = system: three grassy weeds (wild oat, watergrass, foxtail); design: species or system Avena fatua, Echinochloa crusgalli, Setaria viridis
[5] = system: three grassy weeds (wild oat, watergrass, foxtail); design: species or system Avena fatua, Echinochloa crusgalli, Setaria viridis; remark: listed apart in the source
[6] = system: yellow nutsedge; design: species or system Cyperus esculentus; remark: listed apart in the source

Structure (SMILES) | % Control, Pre-emergence, BL avg. [1] | % Control, Post-emergence, BL avg. [2] | % Control, Pre-emergence, NS [3] | % Control, Post-emergence, GR avg. [4] | % Control, Pre-emergence, GR avg. [5] | % Control, Post-emergence, NS [6]
CCCSP(=O)(N(CCC)CCC)N(CCC)c1ccc(Cl)cc1C (stereo not drawn) [Compound 61] | 3% | 80% and 76% | 0% | 50% and 38% | 0% | 0%
CCCSP(=O)(N(CCC)CCC)N(CC)c1ccccc1 (stereo not drawn) [Compound 26] | 33% | 50% | 0% | 20% and 10% | 7% | 0%
CCCSP(=O)(N(CCC)CCC)N(C)c1ccc(OC)cc1 (stereo not drawn) [Compound 10] | 0% | 80% | 9% | 30% and 23% | 0% | 10% and 0%
CCCSP(=O)(N(CCC)CCC)N(C)c1ccc(OC)cc1 (stereo not drawn) [Compound 36] | 0% | 100% | 0% | 10% | 0% | 0%
CCCN(CCC)P(=O)(Sc1ccccc1)N(CCC)CCC [Compound 63] | 3% | 80% and 91% | 0% | 60% and 43% | 0% | 0%
CCCSP(=O)(N(C)c1ccc(F)cc1)N(C)c1ccc(F)cc1 [Compound 45] | 0% | 90% and 92% | 0% | 50% and 75% | 0% | 0% and 10%
CCCN(CCC)P(=O)(Sc1ccc(Cl)cc1)N(CCC)CCC [Compound 6] | 0% | 80% and 93% | 0% | 70% and 53% | 0% | 0%
CCCSP(=O)(N(CC)CC(C)C)N(CC)CC(C)C [Compound 49] | 0% | 100% | 0% | 80% and 47% | 0% | 0%
CCCSP(=O)(N(CCC)CCC)N(C)c1ccc(Br)cc1C (stereo not drawn) [Compound 39] | 0% | 93% | 0% | 67% | 0% | 80%
CCCSP(=O)(N(CCC)CCC)N(C)c1cccc(Cl)c1Cl (stereo not drawn) [Compound 35] | 0% | 20% and 33% | 0% | 20% and 33% | 0% | 0%
CCCSP(=O)(N(CCC)CCC)N(C)c1cc(F)c(F)cc1F (stereo not drawn) [Compound 48] | 0% | 90% and 80% | 0% | 80% and 40% | 0% | 0%
CCCCN(c1ccccc1)P(=O)(SCCC)N(CCC)CCC (stereo not drawn) [Compound 24] | 33% | 80% and 73% | 0% | 30% and 23% | 0% | 10% and 0%
CCCCN(CCCC)P(=O)(SCCC)N(C)c1ccc(OC)cc1 (stereo not drawn) [Compound 11] | 0% | 60% and 70% | 9% | 30% and 50% | 0% | 10% and 0%
CCCSP(=O)(N(C)CC)N(CCC)CCC (stereo not drawn) [Compound 2] | 33% | 100% | 0% | 80% and 57% | 33% | 20% and 10%
CCCSP(=O)(N(CCC)CCC)N(C)c1ccccc1C (stereo not drawn) [Compound 14] | 33% | 60% and 67% | 0% | 60% and 73% | 30% | 5% and 0%
CCCSP(=O)(N(CCC)CCC)N(C)c1cccc([N+](=O)[O-])c1 (stereo not drawn) [Compound 44] | 0% | 53% | 0% | 10% | 0% | 0%
CCCN(CCC)P(=O)(Sc1ccc(Cl)c(Cl)c1)N(CCC)CCC [Compound 9] | 0% | 50% and 83% | 0% | 50% and 47% | 0% | 0%
CCCSP(=O)(N(CCC)CCC)N(C)c1ccc(Cl)cc1Cl (stereo not drawn) [Compound 22] | 0% | 60% | 0% | 50% and 53% | 0% | 10% and 0%
